Reference: PubChem BioAssay AID651798 (Broad Institute, 2012)
The source made the active and inactive calls.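 How the source made its calls: active means fitted AC50 at or below twice the top valid dose, with signal falling as dose rises; inconclusive means flat fit between -30 and -70%, or poor fit; inactive means the rest, including rising effects.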

target: Kelch-like ECH-associated protein 1 (Homo sapiens) (UniProt Q14145); assay: disruptors of Keap1 Kelch-Nrf2 peptide binding – biochemical, fluorescence polarization, dry powder samples, dose response (AID 651798); settings: Keap1 Kelch/FITC-Nrf2 peptide fluorescence polarization
Sequence (Q14145 whole entry, looked up): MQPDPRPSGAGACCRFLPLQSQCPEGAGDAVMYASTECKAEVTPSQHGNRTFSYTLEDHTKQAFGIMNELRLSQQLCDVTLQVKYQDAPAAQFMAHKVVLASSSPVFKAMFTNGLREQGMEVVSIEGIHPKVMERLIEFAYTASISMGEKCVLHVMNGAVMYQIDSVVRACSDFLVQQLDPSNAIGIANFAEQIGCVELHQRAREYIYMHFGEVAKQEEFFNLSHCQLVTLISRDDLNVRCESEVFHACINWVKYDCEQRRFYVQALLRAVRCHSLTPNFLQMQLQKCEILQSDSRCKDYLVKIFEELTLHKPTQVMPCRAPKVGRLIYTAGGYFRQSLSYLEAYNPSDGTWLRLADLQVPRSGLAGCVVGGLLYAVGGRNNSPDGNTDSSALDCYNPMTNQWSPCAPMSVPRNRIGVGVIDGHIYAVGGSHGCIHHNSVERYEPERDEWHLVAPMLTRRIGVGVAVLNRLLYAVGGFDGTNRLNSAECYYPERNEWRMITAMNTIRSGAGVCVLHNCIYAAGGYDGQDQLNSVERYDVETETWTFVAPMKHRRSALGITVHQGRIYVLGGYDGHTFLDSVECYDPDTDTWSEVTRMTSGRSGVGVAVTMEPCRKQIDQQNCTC

Row | Compound | AC50
1 | COC(=O)C(C(=O)OC)c1cc(NS(=O)(=O)c2c(C)cc(C)cc2C)c2ccccc2c1O | 34.2 µM
2 | Cc1cc(C)c(S(=O)(=O)Nc2cc(C(C(=O)OC(C)C)C(=O)C(F)(F)F)c(O)c3ccccc23)c(C)c1 (stereo not drawn) | 0.673 µM
3 | NC(=O)c1ccccc1C(=O)NC[C@@H]1c2ccccc2CCN1C(=O)[C@@H]1CCCC[C@@H]1C(=O)O | > 100 µM (inactive)
4 | O=C(O)C1CCCCC1C(=O)N1CCc2ccccc2C1CN1C(=O)Cc2ccccc2C1=O (stereo not drawn) | > 100 µM (inactive)
5 | O=C(O)[C@H]1CCCC[C@H]1C(=O)N1CCC2=C(CCCC2)C1CN1C(=O)c2ccccc2C1=O (stereo partly drawn) | > 100 µM (inactive)
6 | Cc1ccc(S(=O)(=O)Nc2cc(C(C(=O)OC(C)C)C(=O)C(F)(F)F)c(O)c3ccccc23)cc1 (stereo not drawn) | 7.25 µM
7 | O=C(O)C1CCCCC1C(=O)N1CCc2ccccc2C1CN1C(=O)[C@H]2CCCC[C@H]2C1=O (stereo partly drawn) | > 100 µM (inactive)
8 | CC(=O)Nc1cc(NS(=O)(=O)c2c(C)cc(C)cc2C)c2ccccc2c1O | 15.2 µM
9 | Cc1ccc(S(=O)(=O)Nc2cc(C(C(=O)OC(C)C)C(=O)C(F)(F)F)c(O)c3ccccc23)c(C)c1 (stereo not drawn) | 2.26 µM
10 | O=C(O)Cc1ccccc1C(=O)N1CCc2ccccc2[C@H]1CN1C(=O)c2ccccc2C1=O | 28.3 µM
11 | O=C(O)[C@H]1C2C=CC(C2)[C@H]1C(=O)N1CCc2ccccc2C1CN1C(=O)c2ccccc2C1=O (stereo partly drawn) | > 100 µM (inactive)
12 | Cc1ccccc1S(=O)(=O)Nc1cc(C(C(=O)OC(C)C)C(=O)C(F)(F)F)c(O)c2ccccc12 (stereo not drawn) | 3.2 µM

The next lines start with the values.

Row | AC50 | Compound
13 | 21.8 µM | CC(C)OC(=O)C(C(=O)C(F)(F)F)c1cc(NS(=O)(=O)c2ccccc2)c2ccccc2c1O (stereo not drawn)
14 | > 100 µM (inactive) | O=C(NCCc1ccccc1)c1ccccc1C(=O)NC[C@@H]1c2ccccc2CCN1C(=O)C1CCCCC1C(=O)O (stereo partly drawn)
15 | > 100 µM (inactive) | Cc1ccc(S(=O)(=O)NC(=O)[C@@H]2c3ccccc3CCN2C(=O)[C@@H]2CCCC[C@@H]2C(=O)O)cc1
16 | 31.9 µM | O=C(O)C1CCCCC1C(=O)N1CCc2ccccc2C1CN1Cc2ccccc2C1=O (stereo not drawn)

same assay, conditions: Keap1 Kelch/FITC-Nrf2 peptide fluorescence polarization; at 12 µM (top of the series)

Row | Compound | activity change, negative = inhibition
17 | O=C1c2ccccc2C(=O)N1CC1c2ccccc2CCN1C(=O)Cc1ccccc1 (stereo not drawn) | inactive

same assay, conditions: Keap1 Kelch/FITC-Nrf2 peptide fluorescence polarization; at 50 µM (top of the series)

Row | Compound | activity change, negative = inhibition
18 | Cc1ccc(S(=O)(=O)NNc2nc(N3CC(O)CC3C(=O)O)nc3ccccc23)cc1 (stereo not drawn) | inactive
19 | Cc1cc(C)c(S(=O)(=O)Nc2nc(N(C)C)nc3ccccc23)c(C)c1 | inactive
20 | CCOC(=O)C(C(=O)OCC)c1cc(CNS(=O)(=O)c2ccc(C)cc2C)c2ccccc2n1 | inactive
21 | O=C1c2ccccc2C(=O)N1C[C@@H]1c2ccccc2CCN1C(=O)C1CCCCC1 | inactive
22 | COc1ccccc1CCNC(=O)[C@@H]1c2ccccc2CCN1C(=O)C1CCCCC1C(=O)O (stereo partly drawn) | inactive
23 | O=C(O)[C@H]1CCCC[C@H]1C(=O)N1CCc2ccccc2[C@H]1CNS(=O)(=O)c1ccccc1 | inactive
24 | O=C(O)CCC(=O)N1CCc2ccccc2C1CN1C(=O)c2ccccc2C1=O (stereo not drawn) | inactive
25 | Cc1cc(C)c(S(=O)(=O)Nc2nc(C(C(=O)OC(C)C)C(=O)C(F)(F)F)nc3ccccc23)c(C)c1 (stereo not drawn) | inactive
26 | O=C(O)[C@H]1CCCC[C@H]1C(=O)N1CCc2ccccc2[C@H]1CNc1nc(Cl)nc2ccccc12 | inactive
27 | O=C(O)[C@H]1CCCC[C@H]1C(=O)N1CCC2=C(CCCC2)C1CN1C(=O)c2ccccc2C1=O (stereo partly drawn) | inactive
28 | Cc1ccc(S(=O)(=O)NC[C@@H]2c3ccccc3CCN2C(=O)[C@@H]2CCCC[C@@H]2C(=O)O)c(C)c1 | inactive
29 | COC(=O)CNc1nc(NS(=O)(=O)c2c(C)cc(C)cc2C)c2ccccc2n1 | inactive
30 | C[C@H](NC(=O)C1CCCC[C@H]1C(=O)O)c1ccccc1 (mixture of isomers) | inactive
31 | Cc1cc(C)c(S(=O)(=O)Nc2nc(NCCO)nc3ccccc23)c(C)c1 | inactive
32 | COC(=O)C1CCCCC1C(=O)N1CCc2ccccc2C1CN1C(=O)c2ccccc2C1=O (stereo not drawn) | inactive
33 | O=C(O)CCCC(=O)N1CCc2ccccc2C1CN1C(=O)c2ccccc2C1=O (stereo not drawn) | inactive
34 | O=C(O)CC(=O)N1CCc2ccccc2C1CN1C(=O)c2ccccc2C1=O (stereo not drawn) | inactive
35 | Cc1ccc(S(=O)(=O)NNc2nc(C(C(=O)OC(C)C)C(=O)C(F)(F)F)nc3ccccc23)cc1 (stereo not drawn) | inactive
36 | O=C(O)[C@@H]1CCCN1C(=O)N1CCc2ccccc2[C@H]1CN1C(=O)c2ccccc2C1=O | inactive
37 | Cc1ccc(S(=O)(=O)NNc2nc(NCC(N)=O)nc3ccccc23)cc1 | inactive
38 | O=C1c2ccccc2C(=O)N1C[C@H]1NCCc2ccccc21 | inactive
39 | O=C(Oc1cc(CN2C(=O)c3ccccc3C2=O)c2ccccc2[n+]1[O-])c1cccc(Cl)c1 | inactive
40 | CC(C)CNc1nc(NS(=O)(=O)c2ccccc2)c2ccccc2n1 | inactive
41 | CCOC(=O)C(C(=O)OCC)c1cc(CN2C(=O)c3ccccc3C2=O)c2ccccc2n1 | inactive
42 | O=C1c2ccccc2C(=O)N1C[C@@H]1c2ccccc2CCN1C(=O)OCc1ccccc1 | inactive
43 | NC(=O)[C@H]1CCCC[C@H]1C(=O)N1CCc2ccccc2[C@H]1CN1C(=O)c2ccccc2C1=O | inactive

The remaining lines, values ahead:

Row | activity change, negative = inhibition | Compound
44 | inactive | O=C(NC[C@@H]1c2ccccc2CCN1C(=O)[C@@H]1CCCC[C@@H]1C(=O)O)c1ccccc1
45 | inactive | COC(=O)[C@H]1CCCC[C@H]1C(=O)N1CCc2ccccc2[C@H]1CN1C(=O)c2ccccc2C1=O
46 | inactive | O=C(NCCCN1CCOCC1)c1ccccc1C(=O)NC[C@@H]1c2ccccc2CCN1C(=O)C1CCCCC1C(=O)O (stereo partly drawn)
47 | inactive | O=C(NC[C@@H]1c2ccccc2CCN1C(=O)[C@@H]1CCCC[C@@H]1C(=O)O)c1ccccc1CO
48 | inactive | O=S(=O)(Nc1nc(NCC2CCCCC2)nc2ccccc12)c1ccccc1
49 | inactive | Cc1cc(C)c(S(=O)(=O)Nc2ncnc3ccccc23)c(C)c1
50 | inactive | O=C(Cc1ccccc1)NC[C@@H]1c2ccccc2CCN1C(=O)[C@@H]1CCCC[C@@H]1C(=O)O
51 | inactive | O=C(O)[C@H]1CCCC[C@H]1C(=O)N1CCc2ccccc2[C@H]1CNS(=O)(=O)c1ccc([N+](=O)[O-])cc1
52 | inactive | COc1ccc(CCN=C2C=C(NS(=O)(=O)c3c(C)cc(C)cc3C)c3ccccc3C2=O)cc1
53 | inactive | COC(=O)[C@@H]1CCCC[C@@H]1C(=O)N1CCc2ccccc2[C@H]1CN1C(=O)c2ccccc2C1=O
54 | inactive | O=C(O)[C@H]1CCCC[C@H]1C(=O)N1CCc2ccccc2C1CCN1C(=O)c2ccccc2C1=O (stereo partly drawn)
55 | inactive | O=C1c2ccccc2C(=O)N1CC1=NCCc2ccccc21
56 | inactive | O=C(NC[C@@H]1c2ccccc2CCN1C(=O)[C@@H]1CCCC[C@@H]1C(=O)O)c1ccc(CN2CCOCC2)cc1
57 | inactive | O=C(O)C1CCCCC1C(=O)Nc1ccccc1CN1C(=O)c2ccccc2C1=O (stereo not drawn)
58 | inactive | Cc1ccc(S(=O)(=O)NC2=CC(=N[C@@H](C)C(=O)OC(C)(C)C)C(=O)c3ccccc32)c(C)c1
59 | inactive | CCOC(=O)Cc1nc(NS(=O)(=O)c2c(C)cc(C)cc2C)c2ccccc2n1
60 | inactive | Cc1ccc(S(=O)(=O)NC(=O)[C@@H]2c3ccccc3CCN2C(=O)[C@@H]2CCCC[C@@H]2C(=O)O)cc1
61 | inactive | O=C(O)c1ccccc1C(=O)NC[C@@H]1c2ccccc2CCN1C(=O)[C@@H]1CCCC[C@@H]1C(=O)O

Row | activity change, negative = inhibition | Compound
62 | inactive | O=C(O)C1CCCCC1C(=O)NCC1c2ccccc2CCN1C(=O)Cc1ccccc1 (stereo not drawn)
63 | inactive | O=C(O)[C@H]1CCCC[C@H]1C(=O)N1CCc2ccccc2C1 (racemic)
64 | inactive | O=C(O)C1CCCCC1C(=O)N1CCc2ccccc2[C@H]1C(=O)NC12CC3CC(CC(C3)C1)C2 (stereo partly drawn)
65 | inactive | O=C(NC[C@@H]1c2ccccc2CCN1C(=O)[C@@H]1CCCC[C@@H]1C(=O)O)c1ccc(CCl)cc1
66 | inactive | CCOC(=O)C(C(=O)OCC)c1nc(NS(=O)(=O)c2c(C)cc(C)cc2C)c2ccccc2n1
67 | inactive | C[C@@H](NC(=O)C1CCCC[C@H]1C(=O)O)c1ccccc1 (mixture of isomers)
68 | inactive | O=C(O)c1ccccc1C(=O)N1CCc2ccccc2C1CN1C(=O)c2ccccc2C1=O (stereo not drawn)
69 | inactive | O=C(O)C1CCCCC1C(=O)N1CCCCC1CN1C(=O)c2ccccc2C1=O (stereo not drawn)
70 | inactive | O=C(NCCO)c1ccccc1C(=O)NC[C@@H]1c2ccccc2CCN1C(=O)C1CCCCC1C(=O)O (stereo partly drawn)
71 | inactive | O=C(O)/C=C\C(=O)N1CCc2ccccc2C1CN1C(=O)c2ccccc2C1=O (stereo not drawn)
72 | inactive | O=C(O)C1CCCCC1C(=O)N1CCc2ccccc2C1c1ccccc1 (stereo not drawn)
73 | inactive | O=C(NC[C@@H]1c2ccccc2CCN1C(=O)[C@@H]1CCCC[C@@H]1C(=O)O)OCC1c2ccccc2-c2ccccc21
74 | inactive | O=C(O)[C@H]1CCCC[C@H]1C(=O)NC(CN1C(=O)c2ccccc2C1=O)c1ccccc1 (stereo partly drawn)
75 | inactive | Cc1cc(C)c(S(=O)(=O)Nc2cc(C(C(=O)OCc3ccccc3)C(=O)OCc3ccccc3)c(O)c3ccccc23)c(C)c1
76 | inactive | O=C(O)C1CCCCC1C(=O)N1CCc2ccccc2[C@H]1C(=O)NCCc1ccccc1 (stereo partly drawn)
77 | inactive | COC(=O)[C@@H]1CCCC[C@@H]1C(=O)N1CCc2ccccc2[C@@H]1CN1C(=O)c2ccccc2C1=O
78 | inactive | C=CC(=O)NC[C@@H]1c2ccccc2CCN1C(=O)[C@@H]1CCCC[C@@H]1C(=O)O
